Measurements: patent US20020052295A1, “Diacyl derivatives of propylene diamine having herbicidal activity” (priority 1999, published 2002)

What was measured:
[1] = tested on: dicotyledonous species; test: Pre-emergence test (later test), average GR80 on dicotyledonous species; assay type: in vivo; conditions: average over dicotyledonous species
Description: (§1) All such uses, and the biological activity enabling such uses, are embraced by the term “herbicidal” herein. Tables 15 and 16 summarize results of tests conducted as described below to determine the pre-emergence herbicidal activity, in the form of a GR80 value, of illustrative compounds of this invention. […] Where herbicidal activity was evident but 80% inhibition was not achieved at the highest rate tested (typically 1000 g/ha), an asterisk (*) is shown in the following tables. Herbicidal activity evident in the form of symptoms of phytotoxicity, in the absence of at least 80% inhibition at any rate, is indicated in the tables by “phyto”. A blank cell in the following tables indicates no herbicidal or phytotoxic response at any rate tested.
(§2) The pre-emergence tests were conducted by the following procedure. Topsoil was sieved to pass through a 1.27 cm screen. Fertilizer was added to the topsoil and the mixture was then sterilized by heating. The topsoil mixture was placed in a pot and compacted to a depth of 1.0 to 1.25 cm from the top of the pot. Seeds of each of several monocotyledonous and dicotyledonous annual plant species were placed on top of the soil. […]
(§3) Approximately 14 days after planting and treating, the plants were observed and herbicidal efficacy recorded as percent inhibition by comparison with untreated plants. […]

[2] = tested on: PANMI; test: Post-emergence herbicidal activity on PANMI (wild proso millet); assay type: in vivo, Panicum miliaceum; conditions: post-emergence spray; lowest tested rate with 80% or greater inhibition; about 14 days after treatment
[3] = tested on: SOLNI; test: Pre-emergence herbicidal activity on SOLNI (black nightshade); assay type: in vivo, Solanum nigrum
Procedure, shortened: (§4)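 GR80 values come from percent inhibition relative to untreated plants, rated roughly 14 days after planting and treating, with rates up to typically 1000 g/ha. Compound was sprayed onto the soil over freshly covered seeds as a dilution in 50:50 acetone/water; pots kept in greenhouse at 30/21° C. day/night after 0.64 cm overhead watering.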

[4] = tested on: SETFA; test: Pre-emergence herbicidal activity on SETFA (giant foxtail); assay type: in vivo, Setaria faberi
Procedure, shortened: as §4

[5] = tested on: ECHCG; test: Post-emergence herbicidal activity on ECHCG (barnyardgrass); assay type: in vivo, Echinochloa crus-galli; conditions: post-emergence spray; lowest tested rate with 80% or greater inhibition; about 14 days after treatment
Procedure, shortened: (§5)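 Post-emergence spray, 50:50 acetone:water, 3,100 l/ha, […]; plants 9–14 days after planting. Greenhouse 30/21° C day/night. Read ~14 days post-treatment: % inhibition vs unsprayed controls.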

[6] = tested on: CHEAL; test: Post-emergence herbicidal activity on CHEAL (common lambsquarters); assay type: in vivo, Chenopodium album; conditions: post-emergence spray; lowest tested rate with 80% or greater inhibition; about 14 days after treatment
Procedure, shortened: as §5

[7] = tested on: SOLNI; test: Post-emergence herbicidal activity on SOLNI (black nightshade); assay type: in vivo, Solanum nigrum; conditions: post-emergence spray; lowest tested rate with 80% or greater inhibition; about 14 days after treatment
Procedure, shortened: as §5

[8] = tested on: BRAPP; test: Pre-emergence herbicidal activity on BRAPP (broadleaf signalgrass); assay type: in vivo, Brachiaria platyphylla
Procedure, shortened: as §4

[9] = tested on: CONAR; test: Pre-emergence herbicidal activity on CONAR (field bindweed); assay type: in vivo, Convolvulus arvensis
Procedure, shortened: as §4

[10] = tested on: CHEAL; test: Pre-emergence herbicidal activity on CHEAL (common lambsquarters); assay type: in vivo, Chenopodium album
Procedure, shortened: as §4

[11] = tested on: BRAPP; test: Post-emergence herbicidal activity on BRAPP (broadleaf signalgrass); assay type: in vivo, Brachiaria platyphylla; conditions: post-emergence spray; lowest tested rate with 80% or greater inhibition; about 14 days after treatment
Procedure, shortened: as §5

[12] = tested on: ABUTH; test: Post-emergence herbicidal activity on ABUTH (velvetleaf); assay type: in vivo, Abutilon theophrasti; conditions: post-emergence spray; lowest tested rate with 80% or greater inhibition; about 14 days after treatment
Procedure, shortened: as §5

[13] = tested on: SETFA; test: Post-emergence herbicidal activity on SETFA (giant foxtail); assay type: in vivo, Setaria faberi; conditions: post-emergence spray; lowest tested rate with 80% or greater inhibition; about 14 days after treatment
Procedure, shortened: as §5

[14] = tested on: DIGSA; test: Post-emergence herbicidal activity on DIGSA (large crabgrass); assay type: in vivo, Digitaria sanguinalis; conditions: post-emergence spray; lowest tested rate with 80% or greater inhibition; about 14 days after treatment
[15] = tested on: DATST; test: Pre-emergence herbicidal activity on DATST (jimsonweed); assay type: in vivo, Datura stramonium
Procedure, shortened: as §4

[16] = tested on: ABUTH; test: Pre-emergence herbicidal activity on ABUTH (velvetleaf); assay type: in vivo, Abutilon theophrasti
Procedure, shortened: as §4

[17] = tested on: SORVU; test: Pre-emergence herbicidal activity on SORVU (shattercane); assay type: in vivo, Sorghum vulgare
Procedure, shortened: as §4

[18] = tested on: SORHA; test: Pre-emergence herbicidal activity on SORHA (johnsongrass, seedling); assay type: in vivo, Sorghum halepense
Procedure, shortened: as §4

[19] = tested on: CONAR; test: Post-emergence herbicidal activity on CONAR (field bindweed); assay type: in vivo, Convolvulus arvensis; conditions: post-emergence spray; lowest tested rate with 80% or greater inhibition; about 14 days after treatment
Procedure, shortened: as §5

[20] = tested on: monocotyledonous species; test: Pre-emergence test (later test), GR80 on monocotyledonous species; assay type: in vivo; conditions: average over monocotyledonous species
Description: as §1, §2, §3

[21] = tested on: DATST; test: Post-emergence herbicidal activity on DATST (jimsonweed); assay type: in vivo, Datura stramonium; conditions: post-emergence spray; lowest tested rate with 80% or greater inhibition; about 14 days after treatment
Procedure, shortened: as §5

[22] = tested on: SORHA; test: Post-emergence herbicidal activity on SORHA (johnsongrass, seedling); assay type: in vivo, Sorghum halepense; conditions: post-emergence spray; lowest tested rate with 80% or greater inhibition; about 14 days after treatment
Procedure, shortened: as §5

[23] = tested on: CIRAR; test: Pre-emergence herbicidal activity on CIRAR (canada thistle, seedling); assay type: in vivo, Cirsium arvense
Procedure, shortened: as §4

[24] = tested on: AMARE; test: Post-emergence herbicidal activity on AMARE (redroot pigweed); assay type: in vivo, Amaranthus retroflexus; conditions: post-emergence spray; lowest tested rate with 80% or greater inhibition; about 14 days after treatment
Procedure, shortened: as §5

[25] = tested on: AMARE; test: Pre-emergence herbicidal activity on AMARE (redroot pigweed); assay type: in vivo, Amaranthus retroflexus
Procedure, shortened: as §4

[26] = tested on: PANDI; test: Pre-emergence herbicidal activity on PANDI (fall panicum); assay type: in vivo, Panicum dichotomiflorum
Procedure, shortened: as §4

[27] = tested on: POROL; test: Pre-emergence herbicidal activity on POROL (common purslane); assay type: in vivo, Portulaca oleracea
Procedure, shortened: as §4

[28] = tested on: PANDI; test: Post-emergence herbicidal activity on PANDI (fall panicum); assay type: in vivo, Panicum dichotomiflorum; conditions: post-emergence spray; lowest tested rate with 80% or greater inhibition; about 14 days after treatment
Procedure, shortened: as §5

[29] = tested on: DIGSA; test: Pre-emergence herbicidal activity on DIGSA (large crabgrass); assay type: in vivo, Digitaria sanguinalis
Procedure, shortened: as §4

[30] = tested on: SORVU; test: Post-emergence herbicidal activity on SORVU (shattercane); assay type: in vivo, Sorghum vulgare; conditions: post-emergence spray; lowest tested rate with 80% or greater inhibition; about 14 days after treatment
Procedure, shortened: as §5

[31] = tested on: PANMI; test: Pre-emergence herbicidal activity on PANMI (wild proso millet); assay type: in vivo, Panicum miliaceum
Procedure, shortened: as §4

[32] = tested on: ECHCG; test: Pre-emergence herbicidal activity on ECHCG (barnyardgrass); assay type: in vivo, Echinochloa crus-galli
Procedure, shortened: as §4

[33] = tested on: POROL; test: Post-emergence herbicidal activity on POROL (common purslane; table head prints PORAL); assay type: in vivo, Portulaca oleracea; conditions: post-emergence spray; lowest tested rate with 80% or greater inhibition; about 14 days after treatment
Procedure, shortened: as §5

[34] = lowest tested rate giving 80% or greater inhibition, approx. 14 days after planting and treating, greenhouse
[35] = racemic mixture vs enantiomers test, rates tested 1000, 650, 300, 200, 100, 65, 30 and 10 g/ha, lowest rate with 80% or greater inhibition

With `CC(CNC(=O)c1cccc(C(F)(F)F)c1)NC(=O)c1cccc(C(F)(F)F)c1` (stereo not shown) [Example 5, N,N′-(1,2-propanediylbis)-3-(trifluoromethyl)benzamide] the “average pre-emergence GR80 on dicotyledonous species” value [1] was 535 g/ha, the “Post-emergence activity (GR80) PANMI” value [2] was “[empty]” and the “Pre-emergence activity (GR80) on SOLNI” value [3, 34] was 750 g/ha. The “Pre-emergence activity (GR80) SOLNI” value [3, 35] was 300 g/ha, the “Pre-emergence activity (GR80) on SETFA” value [4, 34] was “* (Where herbicidal activity was evident but 80% inhibition was not achieved at the highest rate tested (typically 1000 g/ha), an asterisk (*) is shown)” and the “Pre-emergence activity (GR80) SETFA” value [4, 35] was “phyto”. The “Post-emergence activity (GR80) ECHCG” value [5] was “[empty]”, the “Post-emergence activity (GR80) CHEAL” value [6] was 500 g/ha and the “Post-emergence activity (GR80) SOLNI” value [7] was 1000 g/ha. For the same compound, the “Pre-emergence activity (GR80) on BRAPP” value [8, 34] was “* (Where herbicidal activity was evident but 80% inhibition was not achieved at the highest rate tested (typically 1000 g/ha), an asterisk (*) is shown)”, the “Pre-emergence activity (GR80) BRAPP” value [8, 35] was “phyto” and the “Pre-emergence activity (GR80) on CONAR” value [9, 34] was “phyto”. The “Pre-emergence activity (GR80) CONAR” value [9, 35] was “phyto”, the “Pre-emergence activity (GR80) on CHEAL” value [10, 34] was 250 g/ha and the “Pre-emergence activity (GR80) CHEAL” value [10, 35] was 100 g/ha. For the same compound, the “Post-emergence activity (GR80) BRAPP” value [11] was “[empty]”, the “Post-emergence activity (GR80) ABUTH” value [12] was 1000 g/ha and the “Post-emergence activity (GR80) SETFA” value [13] was “[empty]”. The “Post-emergence activity (GR80) DIGSA” value [14] was “[empty]”, the “Pre-emergence activity (GR80) on DATST” value [15, 34] was 500 g/ha and the “Pre-emergence activity (GR80) DATST” value [15, 35] was 1000 g/ha. For the same compound, the “Pre-emergence activity (GR80) on ABUTH” value [16, 34] was 1000 g/ha, the “Pre-emergence activity (GR80) ABUTH” value [16, 35] was “* (Where herbicidal activity was evident but 80% inhibition was not achieved at the highest rate tested (typically 1000 g/ha), an asterisk (*) is shown)” and the “Pre-emergence activity (GR80) on SORVU” value [17, 34] was “phyto”. The “Pre-emergence activity (GR80) SORVU” value [17, 35] was “phyto”, the “Pre-emergence activity (GR80) on SORHA” value [18, 34] was “phyto” and the “Pre-emergence activity (GR80) SORHA” value [18, 35] was “phyto”. The “Post-emergence activity (GR80) CONAR” value [19] was 750 g/ha, the “pre-emergence GR80 on monocotyledonous species” value [20] was 1041 g/ha and the “Post-emergence activity (GR80) DATST” value [21] was 125 g/ha. For the same compound, the “Post-emergence activity (GR80) SORHA” value [22] was “[empty]”, the “Pre-emergence activity (GR80) on CIRAR” value [23, 34] was 250 g/ha and the “Pre-emergence activity (GR80) CIRAR” value [23, 35] was “* (Where herbicidal activity was evident but 80% inhibition was not achieved at the highest rate tested (typically 1000 g/ha), an asterisk (*) is shown)”. For the same compound, the “Post-emergence activity (GR80) AMARE” value [24] was 250 g/ha, the “Pre-emergence activity (GR80) on AMARE” value [25, 34] was 125 g/ha and the “Pre-emergence activity (GR80) AMARE” value [25, 35] was 65 g/ha. The “Pre-emergence activity (GR80) on PANDI” value [26, 34] was 500 g/ha, the “Pre-emergence activity (GR80) PANDI” value [26, 35] was 650 g/ha and the “Pre-emergence activity (GR80) on PORAL” value [27, 34] was 250 g/ha. The “Pre-emergence activity (GR80) PORAL” value [27, 35] was 650 g/ha, the “Post-emergence activity (GR80) PANDI” value [28] was “[empty]” and the “Pre-emergence activity (GR80) on DIGSA” value [29, 34] was 250 g/ha. The “Pre-emergence activity (GR80) DIGSA” value [29, 35] was 200 g/ha, the “Post-emergence activity (GR80) SORVU” value [30] was “[empty]” and the “Pre-emergence activity (GR80) on PANMI” value [31, 34] was “phyto”. The “Pre-emergence activity (GR80) PANMI” value [31, 35] was 650 g/ha, the “Pre-emergence activity (GR80) on ECHCG” value [32, 34] was “phyto” and the “Pre-emergence activity (GR80) ECHCG” value [32, 35] was “phyto”. The “Post-emergence activity (GR80) PORAL” value [33] was 750 g/ha.
